Source: patent US20240325327A1, “METHOD FOR ATTENUATING NEUROINFLAMMATION, AMYLOIDOPATHY AND TAUOPATHY” (Trustees of Dartmouth College, priority 2023, published 2024)

Key:
ACAT2 [1] = biological target: T1, ACAT2 (Homo sapiens, UniProt O75908); design: IC50 ACAT2; settings: cited from earlier work
T1 sequence (O75908 1-522): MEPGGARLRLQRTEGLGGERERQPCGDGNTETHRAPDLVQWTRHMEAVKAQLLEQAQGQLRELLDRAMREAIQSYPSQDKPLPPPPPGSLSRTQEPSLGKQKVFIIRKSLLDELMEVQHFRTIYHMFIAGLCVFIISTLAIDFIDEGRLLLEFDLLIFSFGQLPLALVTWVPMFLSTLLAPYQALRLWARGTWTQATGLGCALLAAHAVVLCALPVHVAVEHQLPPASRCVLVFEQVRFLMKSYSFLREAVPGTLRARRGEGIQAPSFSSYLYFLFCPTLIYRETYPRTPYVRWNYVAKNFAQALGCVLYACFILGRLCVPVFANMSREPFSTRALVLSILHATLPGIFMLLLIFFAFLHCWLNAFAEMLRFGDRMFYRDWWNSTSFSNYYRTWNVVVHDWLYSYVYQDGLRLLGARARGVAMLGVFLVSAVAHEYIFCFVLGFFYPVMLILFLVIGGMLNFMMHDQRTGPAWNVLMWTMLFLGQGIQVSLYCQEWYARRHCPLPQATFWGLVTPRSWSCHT

[2] = tested on: mouse model for Alzheimer's Disease; settings: in vivo; cited from earlier work
human ACAT1 [3] = biological target: T2, human ACAT1 (Homo sapiens, UniProt P35610); test: mixed liposome ACAT1 assay
T2 sequence (P35610 1-550): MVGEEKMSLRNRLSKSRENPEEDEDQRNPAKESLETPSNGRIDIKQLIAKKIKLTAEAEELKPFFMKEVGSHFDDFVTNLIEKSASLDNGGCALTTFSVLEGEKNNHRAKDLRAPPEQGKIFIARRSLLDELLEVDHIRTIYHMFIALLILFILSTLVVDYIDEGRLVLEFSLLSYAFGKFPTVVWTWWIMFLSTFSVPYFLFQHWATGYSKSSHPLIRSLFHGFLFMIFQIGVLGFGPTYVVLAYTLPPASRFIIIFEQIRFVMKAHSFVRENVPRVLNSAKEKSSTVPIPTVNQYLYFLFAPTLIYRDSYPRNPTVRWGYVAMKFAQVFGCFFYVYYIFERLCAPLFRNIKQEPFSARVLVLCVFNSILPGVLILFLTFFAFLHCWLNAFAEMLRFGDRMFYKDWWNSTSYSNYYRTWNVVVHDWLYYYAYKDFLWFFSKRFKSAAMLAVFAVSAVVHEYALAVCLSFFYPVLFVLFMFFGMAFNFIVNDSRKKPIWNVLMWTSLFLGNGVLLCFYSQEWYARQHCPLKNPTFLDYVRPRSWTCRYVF
Description: In vitro Mixed Liposomal ACAT Activity Assay. […] Lysed cells were collected and aliquoted into pre-chilled tubes containing the liposomal mixture of taurocholate, phosphatidylcholine, and cholesterol. Tubes were vortexed and kept on ice for 5 minutes. Samples were then incubated in a 37° C. shaking water bath with ^3H-oleoyl CoA added for 10 minutes. The assay was stopped by adding CHCl3:MeOH (2:1). Lipids were extracted and analyzed by the same TLC method described herein.

IL-4Rα [4] = test: IL-4Rα expression in HMC3 microglia (western blot); format: cell-based, human; settings: for IL-4Rα protein content: human myelin debris-treated HMC3 cells, 48 hours co-incubation
Description: (§1) IL-4Rα expression was determined by convention methods. 25 μg/mL cholesterol equals 38 μg/mL total myelin debris protein. Data are expressed as mean±SEM. *P<0.05; **P<0.01.
[…] Protein was isolated and analyzed by western blot analysis. Vinculin was the loading control. […] Data are expressed as mean±SEM. *P<0.05; **P<0.01.
(§2) Subsequently, myelin debris from human brains was prepared and it was observed that the cholesterol/protein ratio, as well as the protein composition between mouse myelin debris and human myelin debris, were very similar.

ABCA1 = ABCA1 protein content in human myelin debris-treated HMC3 cells; format: cell-based; settings: human myelin debris at 25 μg/mL cholesterol, 0.5 μM inhibitor, 24 hours
Description: Afterward, cells were harvested for western blot analyses. Lysates of HEK293 cells and lysates of HMC3 cells treated with 10 μM LXR agonist T0901317 for 24 hours were respectively used as negative and positive controls for ABCA1 signals. […] Data are expressed as mean±SEM.
as §2

N9 microglial cells = test: inflammatory responses to LPS in N9 microglial cells (qPCR, IκB-α western blot); format: cell-based, mouse; settings: 0.5 μM for 4 hours, then 10, 100 or 1000 ng/mL LPS
Description: Cells were seeded at 1×10^5/well onto 12-well plates in RPMI-1640 with 10% bovine calf serum. […] Six hours later, mRNA was extracted, and qPCR was performed to monitor pro-inflammatory (FIG. 5A) or anti-inflammatory (FIG. 5B) gene expression. […] Thirty minutes later, proteins were extracted for western blot analysis for total IκB-α, and for phosphorylated IκB-α (p-IκB-α). *P<0.05; ** P<0.01.
It has now been shown that, in microglia, genetic inactivation of Acat1 suppresses certain pro-inflammatory response genes (FIG. 4A and FIG. 4C, e.g., IL-1β, iNOS, MCP1, Cxc19, Cxc110 and IL-6) and induces certain anti-inflammatory response genes (FIG. 4B and FIG. 4D, e.g., YM1) in the hippocampus (FIG. 4A and FIG. 4B) and cortex (FIG. 4C and FIG. 4D).

IL-4Rα [5] = test: IL-4Rα expression in N9 microglia (immunoblot); format: cell-based, mouse
Description: Cells were harvested for immunoblot analysis for IL-4Rα. Vinculin was the loading control. Data expressed as mean+/−SEM, * p<0.05, ** p<0.01.
as §1
In microglia, various cholesterol-rich agents including myelin debris and damaged cell membranes enter the cells. […] In addition, the effects of ACAT1 blockade were tested in N9 and the human microglia-like cell line HMC3, which both express normal TREM-2 receptors.

ACAT1 = ACAT1 inhibition, literature values; format: biochemical, human; settings: ratio of IC50 values ACAT2/ACAT1
Source text: Cholesterol is stored as cholesteryl esters. For cholesterol esterification, there are two Acyl-CoA:Cholesterol Acyltransferase (ACAT) genes, SOAT1 and SOAT2, encoding two homologous but distinct enzymes, ACAT1 and ACAT2. Both enzymes use long-chain fatty acyl-CoAs and sterols with 3-beta-OH, including cholesterol and various oxysterols as their substrates. ACAT1 is the major cholesterol storage enzyme in the brain.
Biophys. Res. Comm. […] Here, the ACAT activity was monitored using the ACAT enzyme assay in vitro.

human ACAT1 [6] = biological target: T2, human ACAT1; settings: cited from earlier work
ACAT2 [7] = biological target: T1, ACAT2; settings: at 1 mM; cited from earlier work

Question: Which IC50 (ACAT2 [1]) does the source give for `CCCC[C@H](C)[C@@H]1CC(=O)N[C@@H](Cc2ccccc2)C(=O)N[C@@H](C)C(=O)N[C@H](CC(C)C)C(=O)O1` [Beauveriolide I] here?
Answer: Its IC50 is 20 µM.

Question: With `CC(C)c1cc(C(C)C)c(CC(=O)NS(=O)(=O)Oc2c(C(C)C)cccc2C(C)C)c(C(C)C)c1` [CI 1011] as the compound, how does the “amyloidopathy / cognitive deficits in mouse model for AD” value [2] read?
Answer: Its value is “reduce amyloidopathy”.

Question: With `CCCCCCCC[C@H](SCCCCCC)C(=O)Nc1c(SC)cc(C)nc1SC` [CP113,818] as the compound, how does the “amyloidopathy / cognitive deficits in mouse model for AD” value [2] read?
Answer: Its value is “reduce amyloidopathy and rescue cognitive deficits”.

Question: For `CC(C)c1cccc(C(C)C)c1NC(=O)CC(=O)C(Cc1ccccc1)Cc1ccc(O)cc1` (centres unmarked) [Compound 1B], which IC50 (ACAT2 [1]) is on record?
Answer: The IC50 was 1.5 µM.

Question: Which IC50 (ACAT2 [1]) does the source give for `CC(C)c1cccc(C(C)C)c1NC(=O)CC(=O)C(Cc1ccccc1)Cc1ccc(OC(=O)CCCCCCN2CCCCCC2=O)cc1` (centres unmarked) [Compound 1C] here?
Answer: The IC50 was 0.53 µM.

Question: What does the source list for `CCCCCCCCCCCCS(=O)(=O)[C@](F)(C(=O)Nc1cc(C)c(O)c(C)c1C)c1ccccc1` [F26]?
Answer: EC50 (human ACAT1 [3]): 0.0058 µM; potency relative to F12511 as ACAT1 inhibitor (human ACAT1 [3]; ratio of EC50 values): ~7 times

Question: What does the source list for `CCCCCCCCCCCCS[C@H](C(=O)Nc1cc(C)c(O)c(C)c1C)c1ccccc1` [F12511]?
Answer: IL-4Rα protein content (IL-4Rα [4]): IL-4Rα protein content increases; ABCA1 protein content (ABCA1): increased significantly; IC50 (ACAT2 [1]): 0.11 µM

Question: For `CSc1cc(C)nc(SC)c1NC(=O)CN1CCN(CCSc2nc3ccccc3[nH]2)CC1` [K-604], which “inflammatory responses to LPS” value (N9 microglial cells) is on record?
Answer: The value was “attenuates inflammatory responses to LPS”.

Question: What about the IL-4Rα expression (IL-4Rα [5]; N9 cells, 0.5 μM for 4 or 12 hours) of the same compound?
Answer: The IL-4Rα expression was “increases expression of the receptor IL-4Rα”.

Question: What about the IL-4Rα expression (IL-4Rα [5]; mouse myelin debris-treated N9 cells, 21 hours) of the same compound?
Answer: Its IL-4Rα expression is “upregulates IL-4Rα expression”.

Question: What about the IL-4Rα protein content (IL-4Rα [4]) of the same compound?
Answer: Its IL-4Rα protein content is “IL-4Rα protein content increases”.

Question: What about the IL-4Rα expression (IL-4Rα [4]; mouse myelin debris-treated HMC3 cells, 21 hours) of the same compound?
Answer: The IL-4Rα expression was “upregulates IL-4Rα expression”.

Question: And the ABCA1 protein content (ABCA1)?
Answer: Its ABCA1 protein content is “increased significantly”.

Question: Which IC50 (ACAT2 [1]) does the source give for `CCCCCCCC(=O)Nc1ccccc1-c1ccccc1` [compound 1] here?
Answer: The IC50 was 230 µM.

Question: For `CCCCCCCCC(=O)Nc1ccccc1-c1ccccc1` [compound 2], which IC50 (ACAT2 [1]) is on record?
Answer: The IC50 was 414 µM.

Question: For `CCCCCCCC(=O)Nc1cc(-c2ccccc2)nn1-c1ccccc1` [compound 13], which IC50 (ACAT2 [1]) is on record?
Answer: The IC50 was 53 µM.

Question: Which IC50 (ACAT2 [1]) does the source give for `CCCCCCCCC(=O)Nc1cc(-c2ccccc2)nn1-c1ccccc1` [compound 14] here?
Answer: The IC50 was 75 µM.

Question: For `CCCCCCCCCNc1cc(-c2ccccc2)nn1-c1ccccc1` [compound 16], which IC50 (ACAT2 [1]) is on record?
Answer: The IC50 was 97 µM.

Question: What does the source list for `CCOC(=O)OC(=O)OCC` [diethyl pyrocarbonate]?
Answer: selectivity for ACAT1 over ACAT2 (ACAT1): 4 fold; IC50 (human ACAT1 [6]): 44 µM; IC50 (ACAT2 [1]): 170 µM

Question: With `COc1ccc([C@@H](O)[C@@H](C)Oc2ccc([C@H]3O[C@H](c4ccc(O[C@H](C)[C@H](O)c5ccc6c(c5)OCO6)c(OC)c4)[C@H](C)[C@H]3C)cc2OC)cc1OC` [manassantin B] as the compound, how does the “inhibition of hACAT-2” value (ACAT2 [7]) read?
Answer: The value was 32%.

Question: With Saucerneol B as the compound, how does the IC50 (ACAT2 [1]) read?
Answer: The IC50 was 124 µM.
